Laboratory results reported in PubChem BioAssay AID192 (DTP/NCI, 2004).
Values joined by “and” are separate entries in the source; they are usually repeats but may differ in a detail not shown here. Equal entries are not always repeated. Inconclusive results and toxic doses are left out.

Tested on: BDF1 mice, B16 melanoma ip, median survival T/C
Assay: NCI In Vivo Anticancer Drug Screen. Data for tumor model B16 Melanoma (intraperitoneal) in B6D2F1 (BDF1) mice
Conditions: endpoint: median survival time, higher = longer survival
Outline: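 The ratio T/C compares compound-treated mice with vehicle-treated controls, using survival or tumor size as the endpoint in a transplantable tumor model.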

[1] = dose: 50.0 mg/kg/injection, schedule: Q01DX009 (ip), vehicle: saline with Tween-80
[2] = dose: 100.0 mg/kg/injection, schedule: Q01DX009 (ip), vehicle: saline with Tween-80
[3] = dose: 6.25 mg/kg/injection, schedule: Q01DX009 (ip), vehicle: saline
[4] = dose: 12.5 mg/kg/injection, schedule: Q01DX009 (ip), vehicle: saline
[5] = dose: 25.0 mg/kg/injection, schedule: Q01DX009 (ip), vehicle: saline

SMILES: CC(CC(C)O)=NCCN=C(C)CC(C)O.[Ni] (stereo unspecified)
- T/C (dose: 1.5 mg/kg/injection, schedule: Q04DX003 (ip), vehicle: saline with Tween-80): 108 % of control
- T/C (dose: 2.0 mg/kg/injection, schedule: Q04DX003 (ip), vehicle: saline with Tween-80): 100 % of control
- T/C (dose: 3.0 mg/kg/injection, schedule: Q04DX003 (ip), vehicle: saline with Tween-80): 94 % of control
- T/C (dose: 4.5 mg/kg/injection, schedule: Q04DX003 (ip), vehicle: saline with Tween-80): 86 % of control

SMILES: CCC1CC2CN(CCc3c([nH]c4ccccc34)C(C(=O)OC)(c3cc4c(cc3OC)N(C)C3C(O)(C(=O)OC)C(OC(C)=O)C5(CC)C=CCN6CCC43C65)C2)C1 (stereo unspecified)
- T/C (dose: 0.05 mg/kg/injection, schedule: Q01DX009 (ip), vehicle: Klucel (hydroxypropylcellulose) (HPC)): 111 % of control
- T/C (dose: 0.06 mg/kg/injection, schedule: Q01DX009 (ip), vehicle: water): 109 % of control and 110 % of control
- T/C (dose: 0.13 mg/kg/injection, schedule: Q01DX009 (ip), vehicle: water): 105 % of control and 114 % of control
- T/C (dose: 0.25 mg/kg/injection, schedule: Q01DX009 (ip), vehicle: water): 173 % of control
- T/C (dose: 0.4 mg/kg/injection, schedule: Q01DX009 (ip), vehicle: Klucel (hydroxypropylcellulose) (HPC)): 192 % of control
- T/C (dose: 0.5 mg/kg/injection, schedule: Q01DX009 (ip), vehicle: water): 210 % of control
- T/C (dose: 0.5 mg/kg/injection, schedule: Q04DX003 (ip), vehicle: water): 166 % of control
- T/C (dose: 0.8 mg/kg/injection, schedule: Q01DX009 (ip), vehicle: Klucel (hydroxypropylcellulose) (HPC)): 224 % of control
- T/C (dose: 1.0 mg/kg/injection, schedule: Q01DX009 (ip), vehicle: water): 151 % of control and 163 % of control and 174 % of control
- T/C (dose: 1.0 mg/kg/injection, schedule: Q04DX003 (ip), vehicle: water): 206 % of control
- T/C (dose: 1.6 mg/kg/injection, schedule: Q01DX009 (ip), vehicle: Klucel (hydroxypropylcellulose) (HPC)): 229 % of control
- T/C (dose: 2.0 mg/kg/injection, schedule: Q01DX009 (ip), vehicle: water): 170 % of control and 178 % of control
- T/C (dose: 2.0 mg/kg/injection, schedule: Q04DX003 (ip), vehicle: water): 234 % of control

SMILES: CCSc1nc(C)cc(Cl)n1
- T/C [1]: 100 % of control
- T/C [2]: 104 % of control
- T/C (dose: 200.0 mg/kg/injection, schedule: Q01DX009 (ip), vehicle: saline with Tween-80): 88 % of control

SMILES: CNc1nc2c(N)ncnc2n1C1OC(CO)C(O)C1O (stereo unspecified)
- T/C (dose: 1.56 mg/kg/injection, schedule: Q01DX009 (ip), vehicle: saline): 94 % of control
- T/C (dose: 3.12 mg/kg/injection, schedule: Q01DX009 (ip), vehicle: saline): 90 % of control
- T/C [3]: 95 % of control
- T/C [4]: 101 % of control
- T/C [5]: 101 % of control

SMILES: CCN(CC)CCNc1ccc([N+](=O)[O-])cc1[N+](=O)[O-]
- T/C (dose: 25.0 mg/kg/injection, schedule: Q01DX009 (ip), vehicle: saline with Tween-80): 100 % of control
- T/C [1]: 113 % of control
- T/C (dose: 50.0 mg/kg/injection, schedule: Q04DX003 (ip), vehicle: saline with Tween-80): 102 % of control
- T/C [2]: 100 % of control
- T/C (dose: 100.0 mg/kg/injection, schedule: Q04DX003 (ip), vehicle: saline with Tween-80): 100 % of control

SMILES: CC[P+](CC)(CC)c1ccccc1
- T/C [3]: 101 % of control
- T/C [4]: 110 % of control
- T/C [5]: 111 % of control

SMILES: Cc1cc(C)c([I+]c2c(C)cc(C)cc2C)c(C)c1
- T/C (dose: 1.5 mg/kg/injection, schedule: Q01DX009 (ip), vehicle: suspension in saline): 103 % of control
- T/C (dose: 3.0 mg/kg/injection, schedule: Q01DX009 (ip), vehicle: Klucel (hydroxypropylcellulose) (HPC)): 91 % of control
- T/C (dose: 3.0 mg/kg/injection, schedule: Q01DX009 (ip), vehicle: suspension in saline): 95 % of control
- T/C (dose: 6.0 mg/kg/injection, schedule: Q01DX009 (ip), vehicle: Klucel (hydroxypropylcellulose) (HPC)): 91 % of control
- T/C (dose: 6.0 mg/kg/injection, schedule: Q01DX009 (ip), vehicle: suspension in saline): 100 % of control

SMILES: Brc1nnnn1-c1ccccc1
- T/C (dose: 100.0 mg/kg/injection, schedule: Q01DX009 (ip), vehicle: Klucel (hydroxypropylcellulose) (HPC)): 90 % of control
- T/C (dose: 200.0 mg/kg/injection, schedule: Q01DX009 (ip), vehicle: Klucel (hydroxypropylcellulose) (HPC)): 93 % of control

SMILES: OCCCN1CCCCC1CO (stereo unspecified)
- T/C [4]: 101 % of control
- T/C [5]: 99 % of control
- T/C (dose: 50.0 mg/kg/injection, schedule: Q01DX009 (ip), vehicle: saline): 103 % of control
- T/C (dose: 100.0 mg/kg/injection, schedule: Q01DX009 (ip), vehicle: saline): 90 % of control
- T/C (dose: 200.0 mg/kg/injection, schedule: Q01DX009 (ip), vehicle: saline): 116 % of control
- T/C (dose: 400.0 mg/kg/injection, schedule: Q01DX009 (ip), vehicle: saline): 115 % of control
